Measurements reported in EP3906926A1, “PROLINE HYDROXYLASE INHIBITORS FOR USE IN THE SKELETAL MUSCLE REGENERATION” (Policlinico San Donato S.p.A.- Istituto di Ricovero e Cura …, priority 2020, dated 2021).

Legend:
PHDs = assay: ODD-luciferase reporter assay (Dual-Glo) for PHDs inhibition; settings: C2C12 myoblasts transfected with ODD-luciferase-pcDNA3; 24 hours at 50, 100, 250, 500, 1000 µM, normoxic conditions; linear regression
Description: The IC50 was calculated using a Dual-Glo® Luciferase Assay System kit (Promega) that allows a high-throughput analysis of mammalian cells containing the Firefly (Luciferase-pcDNA3, ODD-Luciferase-pcDNA3) and Renilla (pRL-CMV) luciferase reporters. Briefly, 5 x 10^3 cells per well were seeded in a 96-well plate, and then transfected for 24 hours with a Luciferase-pcDNA3 or an ODD-Luciferase-pcDNA3 (80 ng), containing the firefly gene reporter. A co-transfection with pRL-CMV (8 ng), containing the renilla gene reporter, was performed as an internal control, according to the ViaFect Transfection Reagent® protocol (Promega). After transfection, cells were treated with 10, 25, 50, and 100 µM IOX2 or FG-4592 (R oxadustat) for 24 hours, and then an equal volume of Dual-Glo® Luciferase Reagent was added to each well, incubated at room temperature for 30 minutes, and then analyzed with a Varioskan™ LUX Multimode Microplate Reader (ThermoFisher Scientific). Then, an equal volume of Dual-Glo® Stop & Glo® Reagent was added to each well in order to quench the luminescence from the firefly reaction and to provide the substrate for the renilla luciferase. The mixture was incubated for 30 minutes before analysis. The IC50 values were calculated by linear regression.
To this purpose, the IC50 of both compounds was determined by transiently co-transfecting C2C12 myoblasts with the ODD-luciferase-pcDNA3 plasmid, containing the Oxygen Dependent Domain (ODD) of HIF-1α, and with the pRL-CMV plasmid, as the internal control (Figure 4, panel A). Then, transfected cells were treated for 24 hours with IOX2 or FG-4592 at different concentrations (10, 25, 50, and 100 µM) under normoxic conditions, and the emitted luminescence was collated to untreated controls.
The EC50 was calculated using a Dual-Glo® Luciferase Assay System kit (Promega) that allows a high-throughput analysis of mammalian cells containing the Firefly (Luciferase-pcDNA3, ODD-Luciferase-pcDNA3) and Renilla (pRL-CMV) luciferase reporters. Briefly, 5 x 10^3 cells per well were seeded in a 96-well plate, and then transfected for 24 hours with a Luciferase-pcDNA3 or an ODD-Luciferase-pcDNA3 (80 ng), containing the firefly gene reporter. A co-transfection with pRL-CMV (8 ng), containing the renilla gene reporter, was performed as an internal control, according to the ViaFect Transfection Reagent® protocol (Promega). […] Then, an equal volume of Dual-Glo® Stop & Glo® Reagent was added to each well in order to quench the luminescence from the firefly reaction and to provide the substrate for the renilla luciferase. The mixture was incubated for 30 minutes before analysis. The EC50 values were calculated by linear regression.
The EC50 of each compound was determined by transiently co-transfecting C2C12 myoblasts with the ODD-luciferase-pcDNA3 plasmid, containing the Oxygen Dependent Domain (ODD) of HIF-1α, and with the pRL-CMV plasmid, as the internal control (Figure 12, panel A).

MHC = assay: qPCR of MHC during differentiation; type: cell-based, murine; settings: day 7 of differentiation, 250 µM PLG pre-treated myoblasts
Description: (§1) Total RNA was isolated using ReliaPrep™ RNA Miniprep Systems (Promega), and reverse transcribed to cDNA using the iScript cDNA synthesis kit (BioRad), according to the Manufacturer's instructions. Real-Time Quantitative PCR was performed on 10 ng of cDNA template, 0.2 µM primers, and GoTaq® qPCR Master Mix (Promega) in 20 µl final volume using a StepOnePlus® Real-Time PCR System (Applied Biosystem). […] RPL13 was used as the housekeeping gene. The amplification program consisted in an initial denaturation at 95°C for 3 minutes, followed by 40 cycles of 5 seconds each at 95°C and 30 seconds at 57°C; WNT7a was amplified at 53°C. Relative quantification of target genes was performed in triplicate and calculated by the equation 2^-ΔΔCt.
as §1, with “ReliaPrepTM” for “ReliaPrep™”, “2-ΔΔCt.” for “2^-ΔΔCt.”

Myogenin = assay: qPCR of Myogenin during differentiation; type: cell-based, murine; settings: day 3 of differentiation, 250 µM PLG pre-treated myoblasts
Description: as §1
as §1, with “ReliaPrepTM” for “ReliaPrep™”, “2-ΔΔCt.” for “2^-ΔΔCt.”

murine myoblasts C2C12 = assay: Skeletal muscle differentiation, MHC immunofluorescence (fusion and differentiation indexes); type: cell-based; settings: 250 µM PLG 24 hours in GM, then 7 days in DM without inhibitor; vs untreated controls
Description: (§2) The DM was changed every day for 7 days. Cells were analyzed at 24 hours post-treatment (PT), at 3rd and 7th days of skeletal muscle differentiation.
After differentiation for 7 days in DM, cells were washed with phosphate saline buffer (PBS) and fixed for 15 minutes in 4% (w/v) paraformaldehyde at room temperature. For permeabilization and blocking, cells were incubated for 1 hour in the presence of PBS 0.1% (v/v) Triton X-100 (TX-100, Merck) and 5% (w/v) FBS (Merck) at room temperature. […] After incubation, cells were washed three times in PBS and incubated for 1 hour at room temperature with an anti-mouse FITC-conjugated secondary antibody (Jackson ImmunoResearch), diluted 1:200. […] Myogenesis was assessed by measuring the myotube area and the number of myonuclei per myotube using a fluorescent microscope (Olympus TH4-200) equipped with an acquisition camera. To quantify both differentiation and fusion indexes, ten fields were chosen randomly and, for each field, a minimum of one hundred myosin-positive myotubes with more than two myonuclei were measured using the ImageJ v1.49o software. The area and the number of nuclei per myotube was the mean of ten measurements averaged from three different experiments.
as §2

PHD2 = assay: qPCR of HIF-1α target gene PHD2; type: cell-based, murine; settings: PLG at EC50 (250 µM), 24 hours
Description: as §1
as §1, with “ReliaPrepTM” for “ReliaPrep™”, “2-ΔΔCt.” for “2^-ΔΔCt.”

C2C12 murine myoblasts [1] = assay: CellTox Cytotoxicity Assay; settings: at EC50 concentration (250 µM), 24 hours
Description: To assess PHDs inhibitors cytotoxicity, 5 x 10^3 C2C12 murine myoblasts were seeded in a 96-well plate.

MyoD = assay: Western blot of MyoD nuclear localization; type: cell-based, murine; settings: 250 µM PLG for 24 hours
Description: (§3) For nuclei separation, 5 x 10^6 cells were collected after enzymatic digestion with trypsin (Merck), centrifuged at the maximum speed, resuspended in 400 µl of Buffer A (10 mM KCl, 0.1 mM EDTA, 1 mM DTT, 10 mM Hepes, pH 7.9), containing protease and phosphatase inhibitors cocktail (Merck), and incubated on ice for 20 minutes. Then, 10% NP40 was added to the cell suspension, mixed for 40 seconds, and centrifuged 40 seconds at the maximum speed. After centrifugation, the pellet was resuspended in 80 µl of Buffer C (0.4M NaCl, 1 mM EDTA, 1 mM DTT, 20 mM Hepes, pH 7.9), containing a protease and phosphatase inhibitors cocktail, and then mixed for 30 minutes at 4°C at the maximum speed. Finally, the nuclear suspension was centrifuged for 5 minutes at 4°C at the maximum speed, collected and transferred in a new tube. The total protein content was determined with the BCA Protein Assay Kit (Pierce), according to the manufacturer's instructions.
(§4) Proteins were denaturated by boiling for 10 minutes in sample buffer (0.6 g/100 mL Tris, 2 g/100 mL SDS, 10% glycerol, 1% 2-mercaptoethanol, pH 6.8) and loaded into 10% SDS-PAGE gel, then transferred onto a nitrocellulose membrane (Trans-blot, Bio-Rad Laboratories) by electroblotting. Nitrocellulose membranes were incubated with a blocking solution containing 5% (w/v) non-fat dry milk or 5% (w/v) BSA (Merck) in Tris-buffer saline with 0.1% Tween® 20 (TBS-T) for 1 hour. […] Membranes were washed three times for 10 minutes with TBS-T, and then incubated with the appropriate anti-mouse, anti-rabbit, or anti-goat HRP-conjugated secondary antibodies (Dako, Agilent Technologies), 1:2000 dilution, for 1 hour at room temperature. After three washes for 10 minutes with TBS-T, the immunoreactive bands were visualized using the enhanced chemiluminescence detection kit reagents (ECL Advance, GeHealthcare), according to the manufacturer's instructions.
as §3, with “For total proteins extraction, 7.5 x 10^4 cells were seeded and harvested at 7th days of skeletal muscle differentiation, as previously described. Cells were collected after enzymatic digestion with trypsin (Merck), lysed by sonication and centrifuged at 800 xg for 10 minutes. Supernatant was used to determine total protein content with the BCA Protein Assay Kit (Pierce), according to the manufacturer's instructions. For” for “For”, “(0.4 M” for “(0.4M”

HIF-1α = assay: Western blot of HIF-1α nuclear translocation; type: cell-based, murine; settings: PLG at EC50 (250 µM) for 24 hours, vs untreated control; Lamin A/C housekeeper
Description: as §3, §4
as §3, with “For total proteins extraction, 7.5 x 10^4 cells were seeded and harvested at 7th days of skeletal muscle differentiation, as previously described. Cells were collected after enzymatic digestion with trypsin (Merck), lysed by sonication and centrifuged at 800 xg for 10 minutes. Supernatant was used to determine total protein content with the BCA Protein Assay Kit (Pierce), according to the manufacturer's instructions. For” for “For”, “(0.4 M” for “(0.4M”

C2C12 murine myoblasts [2] = assay: RealTime-Glo MT Cell Viability Assay; settings: at EC50 concentration (250 µM), 24 hours
Description: RealTime-Glo™ kits MT Cell Viability Assay (Promega) was used to investigate the effects of IOX2 and FG-4592 treatment on cell viability. Briefly, 5 x 10^3 C2C12 murine myoblasts were seeded in a 96 well plate and incubated for 24 hours (T0) with MT Cell Viability Substrate (1:1000 dilution) and NanoLuc® Enzyme (1:1000 dilution). Then, 50 µM IOX2 or 40 µM FG-4592 were added to the cell cultures and incubated for other 24 hours before luminescence analysis.
RealTime-Glo™ kits MT Cell Viability Assay (Promega) was used to investigate the effects of PLG treatment on cell viability. Briefly, 5 x 10^3 C2C12 murine myoblasts were seeded in a 96 well plate and incubated for 24 hours (T0) with MT Cell Viability Substrate (1:1000 dilution) and NanoLuc® Enzyme (1:1000 dilution). Then, each PLG inhibitor was added at its EC50 to the cell cultures and incubated for other 24 hours before luminescence analysis.

VEGF = assay: qPCR of HIF-1α target gene VEGF; type: cell-based, murine; settings: PLG at EC50 (250 µM), 24 hours
Description: as §1
as §1, with “ReliaPrepTM” for “ReliaPrep™”, “2-ΔΔCt.” for “2^-ΔΔCt.”

Row | EC50 (PHDs) | Structure (SMILES) | enhancement of MHC (MHC) [fold] | increase of Myogenin (Myogenin) [fold] | fusion index (murine myoblasts C2C12) | increase in the differentiation index (murine myoblasts C2C12) [fold] | increase of PHD2 (PHD2) | Cell toxicity (C2C12 murine myoblasts [1]) | increase of the nuclear localization of MyoD (MyoD) [fold] | HIF-1α nuclear translocation, protein increase (HIF-1α) [fold] | decrease in the proliferation rate (C2C12 murine myoblasts [2]) [%] | enhancement of VEGF (VEGF) [fold]
1 | undetectable | CN(C)c1ccnc(C(=O)NNC(=O)CCC(=O)O)c1 [PLG19] | – | – | – | – | – | – | – | – | – | –
2 | undetectable | O=C(O)CCC(=O)NNC(=O)c1cc2c(cn1)[nH]c1ccccc12 [PLG6] | – | – | – | – | – | – | – | – | – | –
3 | 250 µM | COC(=O)CCC(=O)NNC(=O)c1cc2ccccc2cn1 [PLG11] | 1.4 | 1.4 | no significant changes | 1.2 | 1.3 fold | not due to a toxic effect | 1.3 | 1.5 | 17 | 1.2
4 | undetectable | COC(=O)CCC(=O)NNC(=O)c1cc(N(C)C)ccn1 [PLG23] | – | – | – | – | – | – | – | – | – | –
5 | 250 µM | O=C(O)CCC(=O)NNC(=O)c1cc2ccccc2cn1 [PLG2] | 1.3 | 1.2 | no significant changes | 1.15 | no significant changes | not due to a toxic effect | 1.2 | 1.3 | 20 | 1.1
6 | 250 µM | COC(=O)CCC(=O)NNC(=O)c1cc2c(cn1)[nH]c1ccccc12 [PLG8] | 1.5 | 1.4 | no significant changes | 1.15 | 1.8 fold | not due to a toxic effect | 1.4 | 1.5 | 60 | 1.6
